Data reported in patent US20140024638A1, “TREATMENT OF COGNITIVE DYSFUNCTION IN SCHIZOPHRENIA” (TARGACEPT, INC., priority 2011, published 2014).

Key:
[1] = system: patients with schizophrenia; experiment: Clinical Global Impression - Global Improvement (CGI-I, CGI Global Change), Phase 2 trial; type: in vivo, human; conditions: for CGI Global Change: Adjusted Mean / CGI Global Change: Mean Difference ± SE between TC-5619 and Placebo (Placebo-TC5619): All Patients; for CGI-I: Mean (SE): tobacco users; for CGI-I: Mean (SEM): total population
Procedure: (§1) The double blind, placebo controlled Phase 2 trial was conducted at 7 sites in the United States and 12 sites in India. […] Of the randomized patients, approximately 69% were male and approximately 46% were users of tobacco products. […] The primary efficacy outcome measure was GMLT, and the trial included a number of other scales as secondary efficacy outcome measures.

[2] = target: α7 NNR receptor (Homo sapiens, UniProt P36544); experiment: agonism at the α7 NNR receptor; type: biochemical
Chain of α7 NNR receptor (P36544 23-502): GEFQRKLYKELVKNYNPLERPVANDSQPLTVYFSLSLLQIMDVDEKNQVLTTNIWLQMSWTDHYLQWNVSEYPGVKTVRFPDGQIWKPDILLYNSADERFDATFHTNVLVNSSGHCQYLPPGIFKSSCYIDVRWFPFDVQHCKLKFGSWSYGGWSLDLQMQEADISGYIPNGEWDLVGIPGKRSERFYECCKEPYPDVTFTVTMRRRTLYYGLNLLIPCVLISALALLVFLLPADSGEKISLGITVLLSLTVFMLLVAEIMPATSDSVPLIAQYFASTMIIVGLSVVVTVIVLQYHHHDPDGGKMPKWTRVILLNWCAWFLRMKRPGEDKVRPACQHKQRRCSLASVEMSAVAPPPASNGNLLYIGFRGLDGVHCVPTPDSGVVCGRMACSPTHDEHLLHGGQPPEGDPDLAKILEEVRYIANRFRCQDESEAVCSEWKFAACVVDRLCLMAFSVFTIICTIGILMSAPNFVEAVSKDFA

[3] = water solubility (salt screening); type: physicochemical
[4] = system: patients with schizophrenia; experiment: Clinical Global Impression - Severity (CGI-S), Phase 2 trial; type: in vivo, human; conditions: for CGI-SEVERITY: Adjusted Mean / CGI-SEVERITY: Mean Difference ± SE between TC-5619 and Placebo (Placebo-TC5619): All Patients; for CGI-S: Mean (SE): tobacco users; for CGI-S: Mean (SEM): total population
Procedure: as §1

[5] = system: healthy volunteers; experiment: phase 1 trials in healthy volunteers; type: in vivo, human

With `O=C(N[C@@H]1C2CCN(CC2)[C@H]1Cc1cccnc1)c1cc2ccccc2o1` (single isomer, unassigned) [TC-5619] the “CGI Global Change: Adjusted Mean” value ([1]; Week 1, 1 mg daily, SE 0.15, placebo 3.80) was 3.77, the “CGI Global Change: Mean Difference ± SE between TC-5619 and Placebo (Placebo-TC5619)” value ([1]; Week 1, 1 mg daily, one-sided 90% CI (−0.06, ∞), one-sided P 0.3434) was 0.03 ± 0.07 and the “CGI Global Change: Adjusted Mean” value ([1]; Week 4, 1 mg daily, SE 0.16, placebo 3.64) was 3.49. The “CGI Global Change: Mean Difference ± SE between TC-5619 and Placebo (Placebo-TC5619)” value ([1]; Week 4, 1 mg daily, one-sided 90% CI (0.04, ∞), one-sided P 0.0485) was 0.15 ± 0.09, the “CGI Global Change: Adjusted Mean” value ([1]; Week 8, 5 mg daily, SE 0.16, placebo 3.30) was 3.22 and the “CGI Global Change: Mean Difference ± SE between TC-5619 and Placebo (Placebo-TC5619)” value ([1]; Week 8, 5 mg daily, one-sided 90% CI (−0.07, ∞), one-sided P 0.2533) was 0.08 ± 0.12. For the same molecule, the “CGI Global Change: Adjusted Mean” value ([1]; Week 12, 25 mg daily, SE 0.17, placebo 3.18) was 3.03, the “CGI Global Change: Mean Difference ± SE between TC-5619 and Placebo (Placebo-TC5619)” value ([1]; Week 12, 25 mg daily, one-sided 90% CI (−0.03, ∞), one-sided P 0.1502) was 0.15 ± 0.14 and the “Clinical Global Impression - Global Improvement, result in words” value ([1]; secondary outcome measure, investigator assessment of overall response) was “encouraging efficacy signals”. For the same molecule, the “CGI-I: Mean (SE)” value ([1]; Week 4, 1 mg daily, 1-tailed p = 0.047) was 0.25 (0.14); p = 0.047, the “CGI-I: Mean (SE)” value ([1]; Week 8, 5 mg daily, 1-tailed p = 0.075) was 0.24 (0.16); p = 0.075 and the “CGI-I: Mean (SE)” value ([1]; Week 12, 25 mg daily, 1-tailed p = 0.189) was 0.18 (0.20); p = 0.189. For the same molecule, the “CGI-I: Mean (SEM)” value ([1]; Week 4, 1 mg daily, 1-tailed p = 0.049) was 0.15 (0.09); p = 0.049, the “CGI-I: Mean (SEM)” value ([1]; Week 8, 5 mg daily, 1-tailed p = 0.253) was 0.08 (0.12); p = 0.253 and the “CGI-I: Mean (SEM)” value ([1]; Week 12, 25 mg daily, 1-tailed p = 0.150) was 0.15 (0.14); p = 0.150. For the same molecule, the “agonist character at the α7 NNR” value ([2]; listed as (2S,3R)—N-(2-((3-pyridinyl)methyl)-1-azabicyclo[2.2.2]oct-3-yl)benzofuran-2-carb) was “selective alpha7 NNR agonist”, the “agonist character at the α7 NNR” value ([2]; listed as Compound A) was “highly selective, full agonist” and the “separation between EC50 and the IC50 (for residual inhibition)” value ([2]; α7 NNR receptor) was “good separation”. The water solubility [3] was “very limited”, the “CGI-SEVERITY: Adjusted Mean” value ([4]; Week 1, 1 mg daily, SE 0.03, placebo −0.05) was −0.03 and the “CGI-SEVERITY: Mean Difference ± SE between TC-5619 and Placebo (Placebo-TC5619)” value ([4]; Week 1, 1 mg daily, one-sided 90% CI (−0.07, ∞), one-sided P 0.7588) was −0.02 ± 0.03. The “CGI-SEVERITY: Adjusted Mean” value ([4]; Week 4, 1 mg daily, SE 0.05, placebo −0.09) was −0.06, the “CGI-SEVERITY: Mean Difference ± SE between TC-5619 and Placebo (Placebo-TC5619)” value ([4]; Week 4, 1 mg daily, one-sided 90% CI (−0.10, ∞), one-sided P 0.6737) was −0.02 ± 0.06 and the “CGI-SEVERITY: Adjusted Mean” value ([4]; Week 8, 5 mg daily, SE 0.05, placebo −0.24) was −0.23. For the same molecule, the “CGI-SEVERITY: Mean Difference ± SE between TC-5619 and Placebo (Placebo-TC5619)” value ([4]; Week 8, 5 mg daily, one-sided 90% CI (−0.09, ∞), one-sided P 0.5440) was −0.01 ± 0.06, the “CGI-SEVERITY: Adjusted Mean” value ([4]; Week 12, 25 mg daily, SE 0.07, placebo −0.29) was −0.31 and the “CGI-SEVERITY: Mean Difference ± SE between TC-5619 and Placebo (Placebo-TC5619)” value ([4]; Week 12, 25 mg daily, one-sided 90% CI (−0.11, ∞), one-sided P 0.4495) was 0.01 ± 0.09. For the same molecule, the “Clinical Global Impression - Severity, result in words” value ([4]; secondary outcome measure) was “did not demonstrate a drug effect”, the “CGI-S: Mean (SE)” value ([4]; Week 4, 1 mg daily, 1-tailed p = 0.434) was 0.02 (0.09); p = 0.434 and the “CGI-S: Mean (SE)” value ([4]; Week 8, 5 mg daily, 1-tailed p = 0.224) was 0.08 (0.10); p = 0.224. For the same molecule, the “CGI-S: Mean (SE)” value ([4]; Week 12, 25 mg daily, 1-tailed p = 0.308) was 0.07 (0.14); p = 0.308, the “CGI-S: Mean (SEM)” value ([4]; Week 4, 1 mg daily, 1-tailed p = 0.674) was −0.02 (0.06); p = 0.674 and the “CGI-S: Mean (SEM)” value ([4]; Week 8, 5 mg daily, 1-tailed p = 0.544) was −0.01 (0.06); p = 0.544. For the same molecule, the “CGI-S: Mean (SEM)” value ([4]; Week 12, 25 mg daily, 1-tailed p = 0.450) was 0.01 (0.09); p = 0.450, the attention ([5]; 6.7 mg administered) was “robust improvement in attention” and the tolerability ([5]; phase 1 trials) was “generally well tolerated”.
